{
  "source": "patent US20210253575A1",
  "about": "“PYRROLIDINE AMINE COMPOUNDS FOR THE TREATMENT OF AUTOIMMUNE DISEASE” (Hoffmann-La Roche Inc., priority 2018, published 2021)",
  "target": "T1, human TLR8 (Homo sapiens, UniProt Q9NR97)",
  "T1 sequence (Q9NR97 27-1041)": "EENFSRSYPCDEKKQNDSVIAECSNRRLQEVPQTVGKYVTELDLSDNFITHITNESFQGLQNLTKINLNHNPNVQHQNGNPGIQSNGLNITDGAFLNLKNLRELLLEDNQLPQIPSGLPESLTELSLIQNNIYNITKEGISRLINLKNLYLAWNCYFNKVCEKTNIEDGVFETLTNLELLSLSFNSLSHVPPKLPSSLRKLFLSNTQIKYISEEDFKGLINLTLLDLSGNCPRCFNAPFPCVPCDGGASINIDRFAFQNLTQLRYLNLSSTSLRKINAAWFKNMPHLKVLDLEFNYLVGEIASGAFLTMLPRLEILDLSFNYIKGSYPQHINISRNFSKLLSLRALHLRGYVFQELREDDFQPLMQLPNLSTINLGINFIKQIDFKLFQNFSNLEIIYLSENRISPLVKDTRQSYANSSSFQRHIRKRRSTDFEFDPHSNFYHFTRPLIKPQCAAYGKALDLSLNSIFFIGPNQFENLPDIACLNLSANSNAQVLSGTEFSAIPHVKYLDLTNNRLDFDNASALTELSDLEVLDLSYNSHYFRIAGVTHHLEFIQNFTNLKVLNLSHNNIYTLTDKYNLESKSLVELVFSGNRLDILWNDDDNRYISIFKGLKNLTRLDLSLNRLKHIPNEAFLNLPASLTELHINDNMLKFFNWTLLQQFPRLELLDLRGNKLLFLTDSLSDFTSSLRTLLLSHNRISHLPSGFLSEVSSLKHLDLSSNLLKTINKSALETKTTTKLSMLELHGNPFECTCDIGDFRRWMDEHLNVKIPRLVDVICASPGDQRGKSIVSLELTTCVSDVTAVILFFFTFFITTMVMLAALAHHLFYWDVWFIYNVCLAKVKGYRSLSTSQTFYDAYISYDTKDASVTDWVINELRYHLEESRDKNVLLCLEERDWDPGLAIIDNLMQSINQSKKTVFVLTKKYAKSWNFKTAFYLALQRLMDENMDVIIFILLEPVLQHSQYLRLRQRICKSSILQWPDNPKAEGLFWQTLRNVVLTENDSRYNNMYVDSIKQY",
  "assay": "HEK293-Blue-hTLR-8 cells assay (SEAP reporter, R848 stimulation)",
  "assay_type": "cell-based",
  "settings": "HEK293-Blue-hTLR8 cells, R848 ligand, 20 hrs incubation",
  "description": "The following tests were carried out in order to determine the activity of the compounds of formula (I) in HEK293-Blue-hTLR-7/8/9 cells assay.\nHEK293-Blue-hTLR-8 Cells Assay:\nA stable HEK293-Blue-hTLR-8 cell line was purchased from InvivoGen (Cat. #: hkb-htlr8, San Diego, Calif., USA). These cells were originally designed for studying the stimulation of human TLR8 by monitoring the activation of NF-κB. A SEAP (secreted embryonic alkaline phosphatase) reporter gene was placed under the control of the IFN-β minimal promoter fused to five NF-κB and AP-1-binding sites. The SEAP was induced by activating NF-κB and AP-1 via stimulating HEK-Blue hTLR8 cells with TLR8 ligands. Therefore the reporter expression was declined by TLR8 antagonist under the stimulation of a ligand, such as R848, for incubation of 20 hrs. The cell culture supernatant SEAP reporter activity was determined using QUANTI-Blue™ kit (Cat. #: rep-qb1, Invivogen, San Diego, Ca, USA) at a wavelength of 640 nm, a detection medium that turns purple or blue in the presence of alkaline phosphatase.\nHEK293-Blue-hTLR8 cells were incubated at a density of 250,000˜450,000 cells/mL in a volume of 170 μL in a 96-well plate in Dulbecco's Modified Eagle's medium (DMEM) containing 4.5 g/L glucose, 50 U/mL penicillin, […], […], 2 mM L-glutamine, 10% (v/v) heat-inactivated fetal bovine serum with addition of 20 μL test compound in a serial dilution in the presence of final DMSO at 1% and 10 μL of 60 uM R848 in above DMEM, perform incubation under 37° C. in a CO2 incubator for 20 hrs. Then 20 μL of the supernatant from each well was incubated with 180 μL Quanti-blue substrate solution at 37° C. for 2 hrs and the absorbance was read at 620-655 nm using a spectrophotometer. The signalling pathway that TLR8 activation leads to downstream NF-κB activation has been widely accepted, and therefore similar reporter assay was modified for evaluating TLR8 antagonist.",
  "data": [
    {"smiles": "N#Cc1ccc(N2C[C@H](CN3CCC(N4CCNCC4)CC3)[C@@H](C(F)(F)F)C2)c2cccnc12", "note": "[Example 52, 5-[(3S,4R)-3-[(4-piperazin-1-yl-1-piperidyl)methyl]-4-(trifluoromethyl)pyrrolidin-1-yl]quinoline-8-carbonitrile]", "values": [
      {"measurement": "IC50", "value": 88, "unit": "nM"}
    ]},
    {"smiles": "N#Cc1ccc(N2C[C@H](CN3CC4(CC(N)C4)C3)[C@@H](C(F)(F)F)C2)c2cccnc12", "note": "[Example 53, 5-[(3S,4R)-3-[(6-Amino-2-azaspiro[3.3]heptan-2-yl)methyl]-4-(trifluoromethyl)pyrrolidin-1-yl]quinoline-8-carbonitrile]", "values": [
      {"measurement": "IC50", "value": 146, "unit": "nM"}
    ]},
    {"smiles": "N#Cc1ccc(N2C[C@H](CN3CCC4(CCNC4)CC3)[C@@H](C(F)(F)F)C2)c2cccnc12", "note": "[Example 54, 5-[(3S,4R)-3-(2,8-Diazaspiro[4.5]decan-8-ylmethyl)-4-(trifluoromethyl)pyrrolidin-1-yl]quinoline-8-carbonitrile]", "values": [
      {"measurement": "IC50", "value": 44, "unit": "nM"}
    ]},
    {"smiles": "N#Cc1ccc(N2C[C@H](CN3CCC4(CCCNC4)CC3)[C@@H](C(F)(F)F)C2)c2cccnc12", "note": "[Example 55, 5-[(3S,4R)-3-(2,9-Diazaspiro[5.5]undecan-9-ylmethyl)-4-(trifluoromethyl)pyrrolidin-1-yl]quinoline-8-carbonitrile]", "values": [
      {"measurement": "IC50", "value": 42, "unit": "nM"}
    ]},
    {"smiles": "N#Cc1ccc(N2C[C@H](CN3CCC4(CCNCC4)C3)[C@@H](C(F)(F)F)C2)c2cccnc12", "note": "[Example 56, 5-[(3S,4R)-3-(2,8-Diazaspiro[4.5]decan-2-ylmethyl)-4-(trifluoromethyl)pyrrolidin-1-yl]quinoline-8-carbonitrile]", "values": [
      {"measurement": "IC50", "value": 62, "unit": "nM"}
    ]},
    {"smiles": "N#Cc1ccc(N2C[C@H](CN3CCCC4(CCNCC4)C3)[C@@H](C(F)(F)F)C2)c2cccnc12", "note": "[Example 57, 5-[(3S,4R)-3-(2,9-Diazaspiro[5.5]undecan-2-ylmethyl)-4-(trifluoromethyl)pyrrolidin-1-yl]quinoline-8-carbonitrile]", "values": [
      {"measurement": "IC50", "value": 85, "unit": "nM"}
    ]},
    {"smiles": "N#Cc1ccc(N2CC(CN3CCC(N4CCOCC4)CC3)C3(CC3)C2)c2nccnc12", "note": "(stereo not drawn) [Example 58, 8-[7-[(4-Morpholino-1-piperidyl)methyl]-5-azaspiro[2.4]heptan-5-yl]quinoxaline-5-carbonitrile]", "values": [
      {"measurement": "IC50", "value": 91, "unit": "nM"}
    ]},
    {"smiles": "N#Cc1ccc(N2C[C@H](CN3CCNCC3)[C@@H](C(F)(F)F)C2)c2nccnc12", "note": "[Example 59, 8-[(3S,4R)-3-(Piperazin-1-ylmethyl)-4-(trifluoromethyl)pyrrolidin-1-yl]quinoxaline-5-carbonitrile]", "values": [
      {"measurement": "IC50", "value": 14, "unit": "nM"}
    ]},
    {"smiles": "N#Cc1ccc(N2C[C@H](CN3CCC(N4CCCC4)CC3)[C@@H](C(F)(F)F)C2)c2nccnc12", "note": "[Example 60, 8-[(3S,4R)-3-[(4-Pyrrolidin-1-yl-1-piperidyl)methyl]-4-(trifluoromethyl)pyrrolidin-1-yl]quinoxaline-5-carbonitrile]", "values": [
      {"measurement": "IC50", "value": 43, "unit": "nM"}
    ]},
    {"smiles": "N#Cc1ccc(N2C[C@H](CN3CCC(N4CCCCC4)CC3)[C@@H](C(F)(F)F)C2)c2nccnc12", "note": "[Example 61, 8-[(3S,4R)-3-[[4-(1-Piperidyl)-1-piperidyl]methyl]-4-(trifluoromethyl)pyrrolidin-1-yl]quinoxaline-5-carbonitrile]", "values": [
      {"measurement": "IC50", "value": 23, "unit": "nM"}
    ]},
    {"smiles": "N#Cc1ccc(N2C[C@H](CN3CCC(N4CCCCCC4)CC3)[C@@H](C(F)(F)F)C2)c2nccnc12", "note": "[Example 62, 8-[(3S,4R)-3-[[4-(Azepan-1-yl)-1-piperidyl]methyl]-4-(trifluoromethyl)pyrrolidin-1-yl]quinoxaline-5-carbonitrile]", "values": [
      {"measurement": "IC50", "value": 28, "unit": "nM"}
    ]},
    {"smiles": "N#Cc1ccc(N2C[C@H](CN3C4CCC3CC(N)C4)[C@@H](C(F)(F)F)C2)c2nccnc12", "note": "(stereo partly drawn) [Example 63, 8-[(3S,4R)-3-[(3-amino-8-azabicyclo[3.2.1]octan-8-yl)methyl]-4-(trifluoromethyl)pyrrolidin-1-yl]quinoxaline-5-carbonitrile]", "values": [
      {"measurement": "IC50", "value": 25, "unit": "nM"}
    ]},
    {"smiles": "N#Cc1ccc(N2C[C@H](CN3CCC(N)C(F)(F)C3)[C@@H](C(F)(F)F)C2)c2nccnc12", "note": "(stereo partly drawn) [Example 64, 8-[(3S,4R)-3-[(4-amino-3,3-difluoro-1-piperidyl)methyl]-4-(trifluoromethyl)pyrrolidin-1-yl]quinoxaline-5-carbonitrile]", "values": [
      {"measurement": "IC50", "value": 86, "unit": "nM"}
    ]},
    {"smiles": "N#Cc1ccc(N2CC(CN3CCC4(CCCCN4)CC3)C3(CC3)C2)c2nccnc12", "note": "(stereo not drawn) [Example 65, 8-[7-(1,9-Diazaspiro[5.5]undecan-9-ylmethyl)-5-azaspiro[2.4]heptan-5-yl]quinoxaline-5-carbonitrile]", "values": [
      {"measurement": "IC50", "value": 92, "unit": "nM"}
    ]},
    {"smiles": "N#Cc1ccc(N2CC(CN3CCC4NCC4C3)C3(CC3)C2)c2nccnc12", "note": "(stereo not drawn) [Example 66, 8-[7-(3,7-Diazabicyclo[4.2.0]octan-3-ylmethyl)-5-azaspiro[2.4]heptan-5-yl]quinoxaline-5-carbonitrile]", "values": [
      {"measurement": "IC50", "value": 82, "unit": "nM"}
    ]},
    {"smiles": "N#Cc1ccc(N2CC(CN3CCOC4(CCNCC4)C3)C3(CC3)C2)c2nccnc12", "note": "(stereo not drawn) [Example 67, 8-[7-(1-Oxa-4,9-diazaspiro[5.5]undecan-4-ylmethyl)-5-azaspiro[2.4]heptan-5-yl]quinoxaline-5-carbonitrile]", "values": [
      {"measurement": "IC50", "value": 41, "unit": "nM"}
    ]},
    {"smiles": "N#Cc1ccc(N2CC(CN3CCC(N)CC3)C3(CC3)C2)c2nccnc12", "note": "(stereo not drawn) [Example 68, 8-[7-[(4-Amino-1-piperidyl)methyl]-5-azaspiro[2.4]heptan-5-yl]quinoxaline-5-carbonitrile]", "values": [
      {"measurement": "IC50", "value": 51, "unit": "nM"}
    ]},
    {"smiles": "N#Cc1ccc(N2C[C@H](CN3CCCC(C(N)=O)C3)[C@@H](C(F)(F)F)C2)c2nccnc12", "note": "(stereo partly drawn) [Example 69, 1-[[(3S,4R)-1-(S-cyanoquinoxalin-5-yl)-4-(trifluoromethyl)pyrrolidin-3-yl]methyl]piperidine-3-carboxamide]", "values": [
      {"measurement": "IC50", "value": 729, "unit": "nM"}
    ]},
    {"smiles": "N#Cc1ccc(N2C[C@H](CN3CCC4(CC3)CNCCO4)[C@@H](C(F)(F)F)C2)c2nccnc12", "note": "[Example 70, 8-[(3S,4R)-3-(1-oxa-4,9-diazaspiro[5.5]undecan-9-ylmethyl)-4-(trifluoromethyl)pyrrolidin-1-yl]quinoxaline-5-carbonitrile]", "values": [
      {"measurement": "IC50", "value": 20, "unit": "nM"}
    ]},
    {"smiles": "N#Cc1ccc(N2C[C@H](CNC3CCNCC3)[C@@H](C(F)(F)F)C2)c2nccnc12", "note": "[Example 71, 8-[(3S,4R)-3-[(4-piperidylamino)methyl]-4-(trifluoromethyl)pyrrolidin-1-yl]quinoxaline-5-carbonitrile]", "values": [
      {"measurement": "IC50", "value": 94, "unit": "nM"}
    ]},
    {"smiles": "C[C@H]1CN(C[C@H]2CN(c3ccc(C#N)c4nccnc34)C[C@@H]2C(F)(F)F)CC[C@H]1N", "note": "[Example 72, 8-[(3S,4R)-3-[[(3S,4R)-4-amino-3-methyl-1-piperidyl]methyl]-4-(trifluoromethyl)pyrrolidin-1-yl]quinoxaline-5-carbonitrile]", "values": [
      {"measurement": "IC50", "value": 23, "unit": "nM"}
    ]},
    {"smiles": "N#Cc1ccc(N2C[C@H](CN3CC4CCC(C3)C4N)[C@@H](C(F)(F)F)C2)c2nccnc12", "note": "(stereo partly drawn) [Example 73, 8-[(3S,4R)-3-[(8-amino-3-azabicyclo[3.2.1]octan-3-yl)methyl]-4-(trifluoromethyl)pyrrolidin-1-yl]quinoxaline-5-carbonitrile]", "values": [
      {"measurement": "IC50", "value": 35, "unit": "nM"}
    ]},
    {"smiles": "N#Cc1ccc(N2C[C@H](CN3CCC(CN)CC3)[C@@H](C(F)(F)F)C2)c2nccnc12", "note": "[Example 74, 8-[(3S,4R)-3-[[4-(aminomethyl)-1-piperidyl]methyl]-4-(trifluoromethyl)pyrrolidin-1-yl]quinoxaline-5-carbonitrile]", "values": [
      {"measurement": "IC50", "value": 55, "unit": "nM"}
    ]},
    {"smiles": "CC1(CN)CCCN(C[C@H]2CN(c3ccc(C#N)c4nccnc34)C[C@@H]2C(F)(F)F)C1", "note": "(stereo partly drawn) [Example 75, 8-[(3S,4R)-3-[[3-(aminomethyl)-3-methyl-1-piperidyl]methyl]-4-(trifluoromethyl)pyrrolidin-1-yl]quinoxaline-5-carbonitrile]", "values": [
      {"measurement": "IC50", "value": 31, "unit": "nM"}
    ]}
  ]
}
